In paper PMC10331583, “Control of fibrosis with enhanced safety via asymmetric inhibition of prolyl‐tRNA synthetase 1” (EMBO Molecular Medicine, 2023):
Several values for one entry are separate records, joined by “and”; a condition that tells them apart may be missing. Equal entries are not always repeated.

Tests used:
WI‐26 VA4 cells = experiment: Immunoblot of cellular protein levels with different proline content; assay type: cell-based, human; settings: Fig 2A
Description: (§1) The levels of proteins were determined by immunoblot assay. […] The lowest concentration at which protein levels started to decrease was normalized by IC50 values for collagen level and used as the y‐axis value. […] The slope and R^2 value were calculated using GraphPad Prism 7.0. […] The activation of the TGF‐β pathway was determined by monitoring the phosphorylation of SMAD2. Immunoblot images are representative of three biologically independent experiments. • The band intensities of the immunoblot images in (C) were quantified using ImageJ (n = 3; One‐way ANOVA; *P < 0.05, **P < 0.01, ***P < 0.001; mean ± SEM). Source data are available online for this figure.

phosphorylation of SMAD2 = experiment: Phosphorylation of SMAD2 (TGF‐β pathway), immunoblot; assay type: cell-based, human; settings: TGF‐β 2 ng/ml, 15 h
Description: as §1

[1] = test system: WI‐26 VA4 cells stably expressing EV (empty vector); experiment: Collagen ELISA in cells stably expressing EV; settings: for Collagen level, average: average of 4 experiments; for Collagen level, single replicates: replicates of Experiments #1-#4
C57BL/6 mice = experiment: Bleomycin‐induced lung fibrosis, therapeutic model 1 (compounds from a week after bleomycin); assay type: in vivo; settings: for BALF total cell count, average / BALF total cell count, single animal / Collagen contents, average / Collagen contents, single animal / Fibrotic area, average / Fibrotic area, single animal / SpO2, average / SpO2, single animal: BLM +
Description: To examine therapeutic efficacy of DWN12088, all experiments were conducted following the international guidelines on the ethical use of experimental animals and approved by the Institutional Animal Care and Use Committee of Daewoong Pharmaceutical (IACUC‐21‐014). C57BL/6 mice (7–8‐week‐old, male, obtained from Orient Bio) were anesthetized with Zoletil and injected intratracheally with 100 μl bleomycin (2 units/kg) (Merck, B8416) to induce lung fibrosis. A group of disease‐free mice (“untreated”) were injected with PBS instead of bleomycin. After a week, mice treated with bleomycin were randomized to (i) vehicle (saline), (ii) HF 0.05 mg/kg, (iii) HF 0.1 mg/kg, and (iv) DWN12088 10 mg/kg groups (n = 5 for each group) according to their body weight. The drugs were orally administered once daily for 2 weeks, and then the outcome was analyzed. For the experiments testing the effect of the compounds 2 weeks after bleomycin challenge, the experiment was approved by IACUC of Daewoong Pharmaceutical (IACUC‐22‐009). The experimental procedures were performed following the methods described previously, with the exception that the compounds were administered 2 weeks after bleomycin challenge. The experiments were conducted as non‐blind tests.
Mice were anesthetized with Zoletil for 10 min, and a portable mouse pulse oximeter (Veterinary Pulse Oximeter, Berry Electronic) was placed on each mouse's body. The measurements were continued to allow the recording of 3 min of a stable signal.
The collagen contents of lung tissues were measured using Sircol™ soluble collagen assay (Biocolor Ltd., S1000) following the manufacturer's instructions. Briefly, the right lung lobes were homogenized, and collagen was solubilized in 0.5 M acetic acid. Tissue extracts were incubated with Sirius red dye, and the absorbance was determined at 540 nm using a spectrophotometer. The amount of collagen was expressed relative to the wet weight of the tissues.
The lung tissues were fixed in paraformaldehyde and embedded in paraffin. The paraffin‐embedded blocks were sectioned at 4 μm and then mounted onto glass slides. After deparaffinization and rehydration, the slides were fixed with Bouin's solution (Sigma Aldrich, HT10132‐1L) for 1 h. Then, the slides were incubated with hematoxylin (Sigma Aldrich, MHS16‐500ML), Biebrich Scarlet (Sigma Aldrich, B‐6008) and acid fuchsin (Sigma Aldrich, A‐3908), phosphomolybdic (DAEJUNG, 6531‐4105) and phosphotungstic acid (DAEJUNG, 6539‐4105), aniline blue (DAEJUNG, 1087‐4125), and then 1% (v/v) acetic acid (DUKSAN, UN2789). After dehydration, the slides were mounted onto cover slips and scanned using slide scanner (3D HISTECH, Pannoramic MIDI). Fibrotic area of the images was quantified by using Image J plugin, color deconvolution 2.

For O=C(CC1NCCCC1O)Cn1cnc2cc(Br)c(Cl)cc2c1=O (stereo not shown) [HF, Halofuginone, reference compound], the “effective dose for decreasing general proteins (SMAD2, AIMP2, AMPKα, cyclin D1) compared with COL1A1” value (WI‐26 VA4 cells) was “about three times”, the SMAD2 phosphorylation (phosphorylation of SMAD2) was “reduced SMAD2 phosphorylation” and the IC50 ([1]; Homo sapiens, WI26VA4, read-out: IC50, collagen level) was 15.2 nM. The “Collagen level, average” value ([1]; WI-26 VA4 EV, 0.3 nM) was 105.43 % of control, the “Collagen level, single replicates” value ([1]; WI-26 VA4 EV, 0.3 nM) was 107.71 % of control and 102.31 % of control and 99.56 % of control and 107.96 % of control and 119.37 % of control and 97.79 % of control and 105.72 % of control and 112.41 % of control and 97.00 % of control and 105.68 % of control and 103.25 % of control and the “Collagen level, average” value ([1]; WI-26 VA4 EV, 1 nM) was 98.88 % of control. The “Collagen level, single replicates” value ([1]; WI-26 VA4 EV, 1 nM) was 99.81 % of control and 96.49 % of control and 94.72 % of control and 113.88 % of control and 89.98 % of control and 98.97 % of control and 99.45 % of control and 90.47 % of control and 100.22 % of control and 101.63 % of control and 90.65 % of control and 110.29 % of control, the “Collagen level, average” value ([1]; WI-26 VA4 EV, 3 nM) was 98.91 % of control and the “Collagen level, single replicates” value ([1]; WI-26 VA4 EV, 3 nM) was 95.48 % of control and 110.90 % of control and 101.31 % of control and 98.76 % of control and 84.68 % of control and 101.40 % of control and 94.43 % of control and 83.51 % of control and 102.77 % of control and 119.57 % of control and 100.02 % of control and 94.04 % of control. The “Collagen level, average” value ([1]; WI-26 VA4 EV, 10 nM) was 67.80 % of control, the “Collagen level, single replicates” value ([1]; WI-26 VA4 EV, 10 nM) was 70.56 % of control and 73.60 % of control and 52.16 % of control and 80.52 % of control and 55.32 % of control and 68.13 % of control and 71.03 % of control and 51.88 % of control and 67.22 % of control and 78.89 % of control and 53.10 % of control and 91.18 % of control and the “Collagen level, average” value ([1]; WI-26 VA4 EV, 30 nM) was 31.49 % of control. The “Collagen level, single replicates” value ([1]; WI-26 VA4 EV, 30 nM) was 29.59 % of control and 29.66 % of control and 28.02 % of control and 34.01 % of control and 34.11 % of control and 31.81 % of control and 31.01 % of control and 33.29 % of control and 33.04 % of control and 33.86 % of control and 29.96 % of control and 29.53 % of control, the “Collagen level, average” value ([1]; WI-26 VA4 EV, 100 nM) was 6.34 % of control and the “Collagen level, single replicates” value ([1]; WI-26 VA4 EV, 100 nM) was 7.42 % of control and 5.23 % of control and 5.03 % of control and 5.46 % of control and 5.70 % of control and 6.01 % of control and 7.87 % of control and 7.08 % of control and 6.26 % of control and 7.39 % of control and 6.77 % of control and 5.82 % of control. For the same compound, the “Collagen level, average” value ([1]; WI-26 VA4 EV, 300 nM) was 4.49 % of control, the “Collagen level, single replicates” value ([1]; WI-26 VA4 EV, 300 nM) was 4.87 % of control and 3.68 % of control and 2.38 % of control and 3.50 % of control and 4.00 % of control and 5.84 % of control and 5.04 % of control and 4.31 % of control and 5.22 % of control and 6.88 % of control and 2.82 % of control and 5.35 % of control and the “Collagen level, average” value ([1]; WI-26 VA4 EV, 1000 nM) was 5.68 % of control. For the same compound, the “Collagen level, single replicates” value ([1]; WI-26 VA4 EV, 1000 nM) was 6.31 % of control and 4.51 % of control and 4.24 % of control and 5.46 % of control and 6.24 % of control and 6.40 % of control and 5.99 % of control and 5.56 % of control and 5.73 % of control and 6.61 % of control and 4.97 % of control and 6.15 % of control, the “HillSlope, collagen level” value ([1]; WI-26 VA4 EV, four-parameter fit) was -1.549 and the “LogIC50, collagen level” value ([1]; WI-26 VA4 EV, log of concentration in nM, four-parameter fit) was 1.181. For the same compound, the SpO2 (C57BL/6 mice; 0.05 mg/kg oral once a day, 2 weeks (Figs 1E and EV4G)) was “did not show an improvement in SpO2”, the “BALF total cell count, average” value (C57BL/6 mice; 0.05 mg/kg) was 10.46 x105 cells and the “BALF total cell count, single animal” value (C57BL/6 mice; 0.05 mg/kg) was 10 x105 cells and 12 x105 cells and 9.3 x105 cells and 11 x105 cells. The “Collagen contents, average” value (C57BL/6 mice; 0.05 mg/kg) was 308.0 μg/right lung, the “Collagen contents, single animal” value (C57BL/6 mice; 0.05 mg/kg) was 314 μg/right lung and 298 μg/right lung and 320 μg/right lung and 264 μg/right lung and 344 μg/right lung and the “Fibrotic area, average” value (C57BL/6 mice; 0.05 mg/kg) was 275.3 % of control. The “Fibrotic area, single animal” value (C57BL/6 mice; 0.05 mg/kg) was 303.9 % of control and 169.0 % of control and 380.1 % of control and 194.5 % of control and 329.1 % of control, the “SpO2, average” value (C57BL/6 mice; 0.05 mg/kg) was 71.2% and the “SpO2, single animal” value (C57BL/6 mice; 0.05 mg/kg) was 72% and 64% and 66% and 76% and 78%. For the same compound, the “BALF total cell count, average” value (C57BL/6 mice; 0.1 mg/kg) was 7.38 x105 cells, the “BALF total cell count, single animal” value (C57BL/6 mice; 0.1 mg/kg) was 7.2 x105 cells and 9 x105 cells and 5.1 x105 cells and 7.4 x105 cells and 8.2 x105 cells and the “Collagen contents, average” value (C57BL/6 mice; 0.1 mg/kg) was 231.8 μg/right lung. The “Collagen contents, single animal” value (C57BL/6 mice; 0.1 mg/kg) was 254 μg/right lung and 195 μg/right lung and 275 μg/right lung and 201 μg/right lung and 234 μg/right lung, the “Fibrotic area, average” value (C57BL/6 mice; 0.1 mg/kg) was 171.2 % of control and the “Fibrotic area, single animal” value (C57BL/6 mice; 0.1 mg/kg) was 180.4 % of control and 138.3 % of control and 115.6 % of control and 249.0 % of control and 172.5 % of control. The “SpO2, average” value (C57BL/6 mice; 0.1 mg/kg) was 80.0%, the “SpO2, single animal” value (C57BL/6 mice; 0.1 mg/kg) was 78% and 81% and 85% and 82% and 74% and the “collagen deposition, Masson's trichrome staining” value (C57BL/6 mice; lung tissue (Fig 1H and I)) was “decreased collagen deposition in the interstitial spaces”. The fibrotic properties (C57BL/6 mice; model 1, drug administration from day 7) was “significantly reduced fibrotic properties”.
